Experimental data from patent publication US8114991B2, “Amino-1,3,5-triazines N-substituted with chiral bicyclic radicals, process for their preparation, compositions thereof, and their use as herbicides and plant growth regulators” (Bayer Cropscience AG, priority 2003, dated 2012).

Tests used:
[1] = test system: harmful plants such as Sinapis alba, Echinochloa crus-galli, Lolium multiflorum, Stellaria media, Cyperus iria, Amaranthus retroflexus, Setaria viridis, Avena …; experiment: Post-emergence effect on weeds (greenhouse pot test); type: in vivo; details: application rate of 2 kg or less of active ingredient per hectare; treated in the three-leaf stage; scored after approx. 3 to 4 weeks by comparison with untreated controls
[2] = test system: harmful plants such as Stellaria media, Lolium multiforum, Amaranthus retroflexus, Sinapis alba, Avena sativa and Setaria viridis; experiment: Pre-emergence effect on weeds (greenhouse pot test); type: in vivo; details: application rate of 1 kg or less of active ingredient per hectare; scored after 3 to 4 weeks by comparison with untreated controls
How it was run: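 Seeds or rhizome pieces sown in sandy loam; test compounds (wettable powder or emulsion concentrate) applied pre-emergence to soil surface as aqueous suspension/emulsion at various dosages, 600 to 800 l water/ha. Greenhouse; plant/emergence damage scored visually after 3 to 4 weeks versus untreated controls.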

Structure (SMILES) | herbicidal post-emergence activity against harmful plants (scored visually) [1] | pre-emergence control of harmful plants (plant or emergence damage scored visually) [2] | melting point [°C]
C[C@@H](F)c1nc(N)nc(N[C@@H]2CCOc3ccccc32)n1 [Compound 1.20, 2-Amino-4-[(4R)4-chromanylamino]-6-[(1R)-1-fluoroethyl]-1,3,5-triazine] | very good herbicidal post-emergence activity | very good pre-emergence control | 110 to 112
C[C@@H](F)c1nc(N)nc(N[C@H]2c3ccccc3C[C@@H]2C)n1 [Compound 2.1, 2-Amino-4-[(1R,2S)-2-methyl-1-indanylamino]-6-[(1R)-1-fluoroethyl]-1,3,5-triazine] | very good herbicidal post-emergence activity | very good pre-emergence control | 146 to 150
Cc1nc(N)nc(N[C@@H]2CCc3ccccc32)n1 [Compound 8.1, 2-Amino-4-[(1R)-1-indanylamino]-6-methyl-1,3,5-triazine] | very good herbicidal post-emergence activity | very good pre-emergence control | 94 to 96
N#CCc1nc(N)nc(N[C@@H]2CCCc3ccccc32)n1 [Compound 8.255] | very good herbicidal post-emergence activity | very good pre-emergence control | 
Nc1nc(N[C@@H]2CCCc3ccccc32)nc(C(F)F)n1 [Compound 8.256] | very good herbicidal post-emergence activity | very good pre-emergence control | 
CCCCc1nc(N)nc(N[C@@H]2CCCc3ccc(CC)cc32)n1 [Compound 8.257] | very good herbicidal post-emergence activity | very good pre-emergence control | 
CCC(F)c1nc(N)nc(N[C@H]2c3cc(C)ccc3C[C@@H]2C)n1 (some centres unmarked) [Compound 9.37] | very good herbicidal post-emergence activity | very good pre-emergence control | 
CCCCc1nc(N)nc(N[C@H]2c3cc(C)ccc3C[C@@H]2C)n1 [Compound 9.66] | very good herbicidal post-emergence activity | very good pre-emergence control | 
Cc1ccc2c(c1)[C@H](Nc1nc(N)nc(C(C)F)n1)CC2 (some centres unmarked) [Compound 10.2] | very good herbicidal post-emergence activity | very good pre-emergence control | 
CCC(F)c1nc(N)nc(N[C@@H]2CCc3ccc(C)cc32)n1 (some centres unmarked) [Compound 10.37] | very good herbicidal post-emergence activity | very good pre-emergence control | 
CCC(F)c1nc(N)nc(N[C@@H]2CCCc3ccc(C)cc32)n1 (some centres unmarked) [Compound 10.47] | very good herbicidal post-emergence activity | very good pre-emergence control | 
CCC(F)c1nc(N)nc(N[C@@H]2CCOc3ccc(C)cc32)n1 (some centres unmarked) [Compound 10.57] | very good herbicidal post-emergence activity | very good pre-emergence control | 
CCCC(F)c1nc(N)nc(N[C@@H]2CCCc3ccc(C)cc32)n1 (some centres unmarked) [Compound 10.66] | very good herbicidal post-emergence activity | very good pre-emergence control | 
